Measurements: paper doi:10.1101/2023.10.20.563248v1 (biorxiv, 2023)

Experiments:
Conditions in all cases: 1 µM; inhibitor
MAPKAPK2 = MAPKAPK2 (Homo sapiens, UniProt P49137)
RPS6KA5 = RPS6KA5 (Homo sapiens, UniProt O75582)
GSK3A = GSK3A (Homo sapiens, UniProt P49840)
EPHA3 = EPHA3 (Homo sapiens, UniProt P29320)
PBK = PBK (Homo sapiens, UniProt Q96KB5)
ROCK2 = ROCK2 (Homo sapiens, UniProt O75116)
CDK5 = CDK5 (Homo sapiens, UniProt Q00535)
BTK = BTK (Homo sapiens, UniProt Q06187)
ROCK1 = ROCK1 (Homo sapiens, UniProt Q13464)
FAK = FAK (Homo sapiens, UniProt Q05397)
EPHB1 = EPHB1 (Homo sapiens, UniProt P54762)
TXK = TXK (Homo sapiens, UniProt P42681)
p38d = p38d (Homo sapiens, UniProt O15264)
Sequence of p38d (O15264 whole entry): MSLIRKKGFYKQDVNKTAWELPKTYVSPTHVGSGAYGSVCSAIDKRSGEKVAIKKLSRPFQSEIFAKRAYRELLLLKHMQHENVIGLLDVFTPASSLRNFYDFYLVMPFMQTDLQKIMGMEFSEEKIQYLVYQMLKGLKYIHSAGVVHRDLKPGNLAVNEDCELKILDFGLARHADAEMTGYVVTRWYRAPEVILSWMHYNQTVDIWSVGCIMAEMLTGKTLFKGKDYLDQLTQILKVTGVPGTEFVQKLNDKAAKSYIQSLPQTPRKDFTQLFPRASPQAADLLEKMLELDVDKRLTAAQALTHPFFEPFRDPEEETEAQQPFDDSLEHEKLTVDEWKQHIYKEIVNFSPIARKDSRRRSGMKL

NEK7 = NEK7 (Homo sapiens, UniProt Q8TDX7)
TIE2 = TIE2 (Homo sapiens, UniProt Q02763)
PIM3 = PIM3 (Homo sapiens, UniProt Q86V86)
PAK4 = PAK4 (Homo sapiens, UniProt O96013)
DYRK4 = DYRK4 (Homo sapiens, UniProt Q9NR20)
VEGFR1 = VEGFR1 (Homo sapiens, UniProt P17948)
IKKe = IKKe (Homo sapiens, UniProt Q14164)
VRK2 = VRK2 (Homo sapiens, UniProt Q86Y07)
Sequence of VRK2 (Q86Y07 whole entry): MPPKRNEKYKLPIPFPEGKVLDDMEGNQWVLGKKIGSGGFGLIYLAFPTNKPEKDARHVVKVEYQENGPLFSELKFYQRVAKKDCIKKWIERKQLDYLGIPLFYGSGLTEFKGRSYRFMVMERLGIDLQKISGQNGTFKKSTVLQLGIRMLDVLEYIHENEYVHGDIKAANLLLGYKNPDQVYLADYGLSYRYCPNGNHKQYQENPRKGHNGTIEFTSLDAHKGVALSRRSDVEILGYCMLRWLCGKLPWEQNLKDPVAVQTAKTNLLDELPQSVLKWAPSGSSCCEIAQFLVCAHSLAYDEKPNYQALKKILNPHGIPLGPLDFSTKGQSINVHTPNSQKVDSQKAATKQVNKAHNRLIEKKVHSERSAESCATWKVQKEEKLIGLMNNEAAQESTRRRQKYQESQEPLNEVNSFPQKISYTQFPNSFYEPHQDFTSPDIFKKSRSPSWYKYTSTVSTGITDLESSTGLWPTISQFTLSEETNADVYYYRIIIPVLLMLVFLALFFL

NEK2 = NEK2 (Homo sapiens, UniProt P51955)
RPS6KA1 = RPS6KA1 (Homo sapiens, UniProt Q15418)
GSG2 = GSG2 (Homo sapiens, UniProt Q8TF76)
CAMK2D = CAMK2D (Homo sapiens, UniProt Q13557)
EPHA5 = EPHA5 (Homo sapiens, UniProt P54756)
TNK1 = TNK1 (Homo sapiens, UniProt Q13470)
DMPK = DMPK (Homo sapiens, UniProt Q09013)
Sequence of DMPK (Q09013 whole entry): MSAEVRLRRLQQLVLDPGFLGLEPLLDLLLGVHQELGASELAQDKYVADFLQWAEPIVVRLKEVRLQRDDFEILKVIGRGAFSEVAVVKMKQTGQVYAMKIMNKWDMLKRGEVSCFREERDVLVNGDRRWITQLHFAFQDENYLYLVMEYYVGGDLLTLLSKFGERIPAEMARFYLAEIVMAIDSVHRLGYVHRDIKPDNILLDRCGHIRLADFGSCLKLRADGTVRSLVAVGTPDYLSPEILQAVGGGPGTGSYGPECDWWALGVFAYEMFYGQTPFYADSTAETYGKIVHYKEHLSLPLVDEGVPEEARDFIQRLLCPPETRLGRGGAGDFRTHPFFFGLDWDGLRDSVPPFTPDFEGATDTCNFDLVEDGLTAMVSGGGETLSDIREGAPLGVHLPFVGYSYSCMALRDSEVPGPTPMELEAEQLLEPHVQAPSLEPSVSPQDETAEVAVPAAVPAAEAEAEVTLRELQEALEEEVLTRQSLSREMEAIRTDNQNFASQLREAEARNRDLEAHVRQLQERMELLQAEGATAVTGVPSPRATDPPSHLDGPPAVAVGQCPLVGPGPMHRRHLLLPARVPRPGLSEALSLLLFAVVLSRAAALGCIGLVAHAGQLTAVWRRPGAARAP

TLK2 = TLK2 (Homo sapiens, UniProt Q86UE8)
Sequence of TLK2 (Q86UE8 whole entry): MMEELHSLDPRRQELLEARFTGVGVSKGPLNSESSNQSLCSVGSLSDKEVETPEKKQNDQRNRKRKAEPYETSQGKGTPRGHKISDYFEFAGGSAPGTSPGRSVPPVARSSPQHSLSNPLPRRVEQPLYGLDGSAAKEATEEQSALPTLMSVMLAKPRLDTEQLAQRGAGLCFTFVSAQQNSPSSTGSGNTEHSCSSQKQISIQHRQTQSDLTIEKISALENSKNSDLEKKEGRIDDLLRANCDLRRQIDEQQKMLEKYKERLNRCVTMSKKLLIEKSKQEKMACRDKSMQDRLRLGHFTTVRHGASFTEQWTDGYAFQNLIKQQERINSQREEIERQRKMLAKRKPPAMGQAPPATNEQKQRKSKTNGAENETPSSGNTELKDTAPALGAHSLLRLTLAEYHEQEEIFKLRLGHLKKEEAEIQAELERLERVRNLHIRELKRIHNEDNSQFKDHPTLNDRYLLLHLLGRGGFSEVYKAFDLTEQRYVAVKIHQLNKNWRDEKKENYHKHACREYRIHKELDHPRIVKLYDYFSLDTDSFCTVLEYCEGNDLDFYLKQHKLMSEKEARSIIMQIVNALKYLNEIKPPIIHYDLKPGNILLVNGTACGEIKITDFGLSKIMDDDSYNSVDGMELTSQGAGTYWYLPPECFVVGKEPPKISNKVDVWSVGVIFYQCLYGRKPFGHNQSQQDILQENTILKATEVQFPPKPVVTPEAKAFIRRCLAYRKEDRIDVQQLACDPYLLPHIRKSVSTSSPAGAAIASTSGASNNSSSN

CDK2/CycD1 = CDK2/CycD1 (Homo sapiens, UniProt P24941)
AurC = AurC (Homo sapiens, UniProt Q9UQB9)
Sequence of AurC (Q9UQB9 whole entry): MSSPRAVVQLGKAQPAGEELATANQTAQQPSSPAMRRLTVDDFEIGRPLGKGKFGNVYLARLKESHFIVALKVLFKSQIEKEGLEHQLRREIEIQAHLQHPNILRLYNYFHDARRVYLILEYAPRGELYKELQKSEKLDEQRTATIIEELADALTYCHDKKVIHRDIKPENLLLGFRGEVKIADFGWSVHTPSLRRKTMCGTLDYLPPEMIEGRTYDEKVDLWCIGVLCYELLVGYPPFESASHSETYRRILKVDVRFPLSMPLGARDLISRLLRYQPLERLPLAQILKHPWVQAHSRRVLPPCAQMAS

Sequence of RPS6KA5 (O75582 whole entry): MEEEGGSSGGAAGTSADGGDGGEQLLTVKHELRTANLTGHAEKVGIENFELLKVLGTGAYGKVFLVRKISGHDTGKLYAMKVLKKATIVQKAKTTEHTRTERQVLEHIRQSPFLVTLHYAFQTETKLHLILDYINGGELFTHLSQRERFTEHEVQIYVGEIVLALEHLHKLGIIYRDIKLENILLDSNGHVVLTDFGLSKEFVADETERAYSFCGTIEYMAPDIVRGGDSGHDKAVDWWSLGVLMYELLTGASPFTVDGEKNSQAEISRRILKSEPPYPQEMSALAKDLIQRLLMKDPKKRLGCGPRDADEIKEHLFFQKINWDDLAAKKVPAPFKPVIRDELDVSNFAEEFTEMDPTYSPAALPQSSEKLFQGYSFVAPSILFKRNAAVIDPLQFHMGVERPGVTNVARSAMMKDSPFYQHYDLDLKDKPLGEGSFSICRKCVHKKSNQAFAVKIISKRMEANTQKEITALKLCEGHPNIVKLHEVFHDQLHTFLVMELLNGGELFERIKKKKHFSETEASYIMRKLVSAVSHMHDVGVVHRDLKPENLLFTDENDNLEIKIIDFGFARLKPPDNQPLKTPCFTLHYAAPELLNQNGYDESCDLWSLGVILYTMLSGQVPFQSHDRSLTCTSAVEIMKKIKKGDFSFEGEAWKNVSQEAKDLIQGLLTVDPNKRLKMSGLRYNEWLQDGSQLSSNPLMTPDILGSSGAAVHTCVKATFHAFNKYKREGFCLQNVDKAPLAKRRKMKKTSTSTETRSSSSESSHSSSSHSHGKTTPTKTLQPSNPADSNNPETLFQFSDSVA
Sequence of ROCK2 (O75116 whole entry): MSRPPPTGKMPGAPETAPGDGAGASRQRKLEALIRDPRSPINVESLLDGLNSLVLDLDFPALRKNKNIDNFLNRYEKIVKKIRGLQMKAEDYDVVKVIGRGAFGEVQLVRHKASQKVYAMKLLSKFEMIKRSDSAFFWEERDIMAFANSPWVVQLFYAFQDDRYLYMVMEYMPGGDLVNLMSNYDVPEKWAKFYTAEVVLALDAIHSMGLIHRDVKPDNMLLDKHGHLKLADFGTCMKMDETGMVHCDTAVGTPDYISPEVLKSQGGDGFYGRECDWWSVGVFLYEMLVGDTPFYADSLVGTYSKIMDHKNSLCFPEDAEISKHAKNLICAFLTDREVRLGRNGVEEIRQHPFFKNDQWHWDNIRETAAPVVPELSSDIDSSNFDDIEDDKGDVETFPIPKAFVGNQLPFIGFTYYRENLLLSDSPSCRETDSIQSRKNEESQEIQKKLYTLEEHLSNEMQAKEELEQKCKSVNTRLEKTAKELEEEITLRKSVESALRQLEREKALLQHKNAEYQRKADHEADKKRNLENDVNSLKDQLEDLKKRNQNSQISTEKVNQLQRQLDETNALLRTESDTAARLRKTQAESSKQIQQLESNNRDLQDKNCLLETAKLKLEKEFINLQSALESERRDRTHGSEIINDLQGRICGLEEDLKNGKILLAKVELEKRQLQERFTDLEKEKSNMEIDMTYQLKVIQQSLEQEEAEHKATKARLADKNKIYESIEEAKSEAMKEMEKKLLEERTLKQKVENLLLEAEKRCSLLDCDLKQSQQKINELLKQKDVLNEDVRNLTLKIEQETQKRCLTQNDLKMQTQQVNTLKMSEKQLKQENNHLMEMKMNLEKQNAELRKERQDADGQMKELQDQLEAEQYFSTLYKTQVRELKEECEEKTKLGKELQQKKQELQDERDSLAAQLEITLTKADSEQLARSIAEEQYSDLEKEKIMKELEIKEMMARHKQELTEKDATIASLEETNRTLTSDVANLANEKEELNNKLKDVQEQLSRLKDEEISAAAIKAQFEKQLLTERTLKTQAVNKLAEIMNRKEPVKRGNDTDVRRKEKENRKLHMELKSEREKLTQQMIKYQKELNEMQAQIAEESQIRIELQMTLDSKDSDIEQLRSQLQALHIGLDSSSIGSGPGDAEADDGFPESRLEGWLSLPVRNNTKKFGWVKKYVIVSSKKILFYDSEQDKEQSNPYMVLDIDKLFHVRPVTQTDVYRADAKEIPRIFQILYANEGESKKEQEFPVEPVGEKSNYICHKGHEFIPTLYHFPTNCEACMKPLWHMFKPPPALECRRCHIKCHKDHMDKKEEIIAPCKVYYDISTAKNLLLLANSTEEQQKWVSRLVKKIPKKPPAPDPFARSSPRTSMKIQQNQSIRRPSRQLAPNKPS

21c Remaining activity, percent of control [%] (MAPKAPK2): 106.1%
21c Remaining activity, percent of control [%] (RPS6KA5): 108.9%
21c Remaining activity, percent of control [%] (GSK3A): 67.3%
21c Remaining activity, percent of control [%] (EPHA3): 97.7%
21c Remaining activity, percent of control [%] (PBK): 98.8%
21c Remaining activity, percent of control [%] (ROCK2): 89.7%
21c Remaining activity, percent of control [%] (CDK5): 101.3%
21c Remaining activity, percent of control [%] (BTK): 96.6%
21c Remaining activity, percent of control [%] (ROCK1): 98.4%
21c Remaining activity, percent of control [%] (FAK): 91.4%
21c Remaining activity, percent of control [%] (EPHB1): 77.1%
21c Remaining activity, percent of control [%] (TXK): 98.2%
21c Remaining activity, percent of control [%] (p38d): 94.8%
21c Remaining activity, percent of control [%] (NEK7): 98.8%
21c Remaining activity, percent of control [%] (TIE2): 116.9%
21c Remaining activity, percent of control [%] (PIM3): 88.9%
21c Remaining activity, percent of control [%] (PAK4): 95.1%
21c Remaining activity, percent of control [%] (DYRK4): 95.6%
21c Remaining activity, percent of control [%] (VEGFR1): 100.3%
21c Remaining activity, percent of control [%] (IKKe): 103.6%
21c Remaining activity, percent of control [%] (VRK2): 96.9%
21c Remaining activity, percent of control [%] (NEK2): 93.5%
21c Remaining activity, percent of control [%] (RPS6KA1): 90.5%
21c Remaining activity, percent of control [%] (GSG2): 108.1%
21c Remaining activity, percent of control [%] (CAMK2D): 95.0%
21c Remaining activity, percent of control [%] (EPHA5): 98.4%
21c Remaining activity, percent of control [%] (TNK1): 96.2%
21c Remaining activity, percent of control [%] (DMPK): 94.3%
21c Remaining activity, percent of control [%] (TLK2): 95.4%
21c Remaining activity, percent of control [%] (CDK2/CycD1): 121.3%
21c Remaining activity, percent of control [%] (AurC): 90.2%
Structure (SMILES): O=C1NCCCCCNc2nc(c3ccccc3n2)Nc2cc1[nH]n2 [21c, (Z)-3^1H-2,5,11-triaza-1(4,2)-quinazolina-3(3,5)-pyrazolacycloundecaphan-4-one]
